System: beta-TC6 cells
Experiment: Insulin HTRF assay, relative activity Ar normalized to sunitinib
Assay type: cell-based
Details: Mus musculus, normalized to positive control sunitinib (5 µM = 100%), Table 10
Summary of the method: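 beta-TC6 cells (15k/well) were seeded for 24 or 48 h, washed and exposed to test compound or sunitinib (5 µM f.c.) in induction buffer with 0.5% DMSO for 2, 3 or 4 h at 37°C. Secreted insulin in the supernatant was measured by two-antibody HTRF after 120 min at RT. Ar = (V − 0% control)/(100% control − 0% control) × 100.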

**Q.** With `Cc1ccccc1-c1nnc2ccc(-c3cccc(C(=O)NCCO)c3)cn12` [compound 224, N-(2-hydroxyethyl)-3-[3-(o-tolyl)-[1,2,4]triazolo[4,3-a]pyridin-6-yl]benzamide] as the molecule, how does the Emax read?
**A.** 10 to 20%

**Q.** `Cc1ccccc1-c1nnc2ccc(-c3ccc(C(N)=O)cc3)cn12` [compound 225, 4-[3-(o-tolyl)-[1,2,4]triazolo[4,3-a]pyridin-6-yl]benzamide] was tested. Which Emax did it give?
**A.** 20 to 50%

**Q.** `c1nc(-c2nnc3ccc(-c4ccc(N5CCOCC5)cc4)cn23)cs1` [compound 226, 4-[4-(3-thiazol-4-yl-[1,2,4]triazolo[4,3-a]pyridin-6-yl)phenyl]morpholine] was tested. Which Emax did it give?
**A.** 50 to 100%

**Q.** `CN(C)c1cccc(-c2ccc3nnc(-c4cscn4)n3c2)c1` [compound 227, N,N-dimethyl-3-(3-thiazol-4-yl-[1,2,4]triazolo[4,3-a]pyridin-6-yl)aniline] was tested. Which Emax did it give?
**A.** 50 to 100%

**Q.** Which Emax does the source give for `Fc1ccc(-c2ccc3nnc(-c4cscn4)n3c2)cc1Cl` [compound 228, 4-[6-(3-chloro-4-fluoro-phenyl)-[1,2,4]triazolo[4,3-a]pyridin-3-yl]thiazole] here?
**A.** 20 to 50%

**Q.** How did the Emax turn out when `c1cc2cc(-c3ccc4nnc(-c5cscn5)n4c3)ccc2[nH]1` [compound 229, 4-[6-(1H-indol-5-yl)-[1,2,4]triazolo[4,3-a]pyridin-3-yl]thiazole] was run?
**A.** 50 to 100%

**Q.** For `NC(=O)c1cccc(-c2ccc3nnc(-c4cscn4)n3c2)c1` [compound 230, 3-(3-thiazol-4-yl-[1,2,4]triazolo[4,3-a]pyridin-6-yl)benzamide], which Emax is on record?
**A.** 20 to 50%

**Q.** How did the Emax turn out when `COc1ccc(-c2ccc3nnc(-c4cscn4)n3c2)c(C)c1` [compound 231, 4-[6-(4-methoxy-2-methyl-phenyl)-[1,2,4]triazolo[4,3-a]pyridin-3-yl]thiazole] was run?
**A.** 50 to 100%

**Q.** For `O=S1(=O)CCN(CC#Cc2ccc3nnc(-c4cscn4)n3c2)CC1` [compound 232, 4-[3-(3-thiazol-4-yl-[1,2,4]triazolo[4,3-a]pyridin-6-yl)prop-2-ynyl]-1,4-thiazinane 1,1-dioxide], which Emax is on record?
**A.** 10 to 20%

**Q.** `Clc1ccccc1-c1ccc2nnc(-c3cscn3)n2c1` [compound 233, 4-[6-(2-chlorophenyl)-[1,2,4]triazolo[4,3-a]pyridin-3-yl]thiazole] was tested. Which Emax did it give?
**A.** 50 to 100%

**Q.** With `COc1cccc(-c2ccc3nnc(-c4cscn4)n3c2)c1` [compound 234, 4-[6-(3-methoxyphenyl)-[1,2,4]triazolo[4,3-a]pyridin-3-yl]thiazole] as the molecule, how does the Emax read?
**A.** 50 to 100%

**Q.** Which Emax does the source give for `COc1ccc(-c2ccc3nnc(-c4ccc(OCCCN(C)C)cc4)n3c2)cc1OC` [compound 236, 3-[4-[6-(3,4-dimethoxyphenyl)-[1,2,4]triazolo[4,3-a]pyridin-3-yl]phenoxy]-N,N-dimethyl-propan-1-amine] here?
**A.** 50 to 100%

**Q.** `CN(C)CCCOc1ccc(-c2nnc3ccc(-c4ccc(Cl)cc4)cn23)cc1` [compound 237, 3-[4-[6-(4-chlorophenyl)-[1,2,4]triazolo[4,3-a]pyridin-3-yl]phenoxy]-N,N-dimethyl-propan-1-amine] was tested. Which Emax did it give?
**A.** 20 to 50%

**Q.** With `CN(C)CCCOc1ccc(-c2nnc3ccc(C#Cc4ccc(C(=O)N(C)C)cc4)cn23)cc1` [compound 238, 4-[2-[3-[4-[3-(dimethylamino)propoxy]phenyl]-[1,2,4]triazolo[4,3-a]pyridin-6-yl]ethynyl]-N,N-dimethyl-benzamide] as the molecule, how does the Emax read?
**A.** 20 to 50%

**Q.** For `COc1cc(C#Cc2ccc3nnc(-c4ccc(OCCCN(C)C)cc4)n3c2)cc(OC)c1` [compound 239, 3-[4-[6-[2-(3,5-dimethoxyphenyl)ethynyl]-[1,2,4]triazolo[4,3-a]pyridin-3-yl]phenoxy]-N,N-dimethyl-propan-1-amine], which Emax is on record?
**A.** 20 to 50%

**Q.** For `CNC(=O)c1ccc(-c2ccc3nnc(-c4ccc(OCCCN(C)C)cc4)n3c2)cc1` [compound 240, 4-[3-[4-[3-(dimethylamino)propoxy]phenyl]-[1,2,4]triazolo[4,3-a]pyridin-6-yl]-N-methyl-benzamide], which Emax is on record?
**A.** 20 to 50%

**Q.** With `CC(=O)Nc1cccc(-c2ccc3nnc(-c4ccc5nccnc5c4)n3c2)c1` [compound 241, N-[3-(3-quinoxalin-6-yl-[1,2,4]triazolo[4,3-a]pyridin-6-yl)phenyl]acetamide] as the molecule, how does the Emax read?
**A.** 50 to 100%

**Q.** With `CN(C)CCNC(=O)c1cccc(-c2ccc3nnc(-c4ccc5nccnc5c4)n3c2)c1` [compound 242, N-(2-dimethylaminoethyl)-3-(3-quinoxalin-6-yl-[1,2,4]triazolo[4,3-a]pyridin-6-yl)benzamide] as the molecule, how does the Emax read?
**A.** ≥ 100%

**Q.** With `CN1CCN(C(=O)c2cccc(-c3ccc4nnc(-c5ccc6nccnc6c5)n4c3)c2)CC1` [compound 243, (4-methylpiperazin-1-yl)-[3-(3-quinoxalin-6-yl-[1,2,4]triazolo[4,3-a]pyridin-6-yl)phenyl]methanone] as the molecule, how does the Emax read?
**A.** 20 to 50%

**Q.** For `COc1cc(-c2ccc3nnc(-c4ccc5nccnc5c4)n3c2)ccc1O` [compound 244, 2-methoxy-4-(3-quinoxalin-6-yl-[1,2,4]triazolo[4,3-a]pyridin-6-yl)phenol], which Emax is on record?
**A.** 50 to 100%

**Q.** How did the Emax turn out when `c1cnc2cc(-c3nnc4ccc(-c5ccoc5)cn34)ccc2n1` [compound 245, 6-[6-(3-furyl)-[1,2,4]triazolo[4,3-a]pyridin-3-yl]quinoxaline] was run?
**A.** 50 to 100%

**Q.** Which Emax does the source give for `CN(C)C(=O)c1cccc(-c2ccc3nnc(-c4ccc5nccnc5c4)n3c2)c1` [compound 246, N,N-dimethyl-3-(3-quinoxalin-6-yl-[1,2,4]triazolo[4,3-a]pyridin-6-yl)benzamide] here?
**A.** 50 to 100%

**Q.** With `Oc1cccc(-c2ccc3nnc(-c4ccccn4)n3c2)c1` [compound 247, 3-[3-(2-pyridyl)-[1,2,4]triazolo[4,3-a]pyridin-6-yl]phenol] as the molecule, how does the Emax read?
**A.** 50 to 100%

**Q.** With `OCc1cccc(-c2ccc3nnc(-c4ccccn4)n3c2)c1` [compound 248, [3-[3-(2-pyridyl)-[1,2,4]triazolo[4,3-a]pyridin-6-yl]phenyl]methanol] as the molecule, how does the Emax read?
**A.** 20 to 50%

**Q.** `CS(=O)(=O)c1cccc(-c2ccc3nnc(-c4ccccn4)n3c2)c1` [compound 249, 6-(3-methylsulfonylphenyl)-3-(2-pyridyl)-[1,2,4]triazolo[4,3-a]pyridine] was tested. Which Emax did it give?
**A.** 20 to 50%

**Q.** Which Emax does the source give for `COc1ccccc1CC(=O)Nc1cnc2cnc(-c3cccc(Cl)c3Cl)cn12` [compound 250, N-[6-(2,3-dichlorophenyl)imidazo[1,2-a]pyrazin-3-yl]-2-(2-methoxyphenyl)acetamide] here?
**A.** 20 to 50%

**Q.** How did the Emax turn out when `COc1cccc(CC(=O)Nc2cnc3cnc(-c4ccccc4CN(C)C)cn23)c1` [compound 252, N-[6-[2-(dimethylaminomethyl)phenyl]imidazo[1,2-a]pyrazin-3-yl]-2-(3-methoxyphenyl)acetamide] was run?
**A.** 20 to 50%

**Q.** For `CCCC/C=C/c1cn2c(NC(=O)Cc3cccc(OC)c3)cnc2cn1` [compound 253, N-[6-[(E)-hex-1-enyl]imidazo[1,2-a]pyrazin-3-yl]-2-(3-methoxyphenyl)acetamide], which Emax is on record?
**A.** 10 to 20%

**Q.** For `COc1cccc(CC(=O)Nc2cnc3cnc(-c4ccc5[nH]ccc5c4)cn23)c1` [compound 254, N-[6-(1H-indol-5-yl)imidazo[1,2-a]pyrazin-3-yl]-2-(3-methoxyphenyl)acetamide], which Emax is on record?
**A.** 10 to 20%

**Q.** With `COc1cccc(CC(=O)Nc2cnc3cnc(-c4ccc(Oc5ccccc5)cc4)cn23)c1` [compound 259, 2-(3-methoxyphenyl)-N-[6-(4-phenoxyphenyl)imidazo[1,2-a]pyrazin-3-yl]acetamide] as the molecule, how does the Emax read?
**A.** 10 to 20%

**Q.** For `COc1cccc(CC(=O)Nc2cnc3cnc(-c4cccs4)cn23)c1` [compound 260, 2-(3-methoxyphenyl)-N-[6-(2-thienyl)imidazo[1,2-a]pyrazin-3-yl]acetamide], which Emax is on record?
**A.** 20 to 50%

**Q.** Which Emax does the source give for `COc1cccc(CC(=O)Nc2cnc3cnc(-c4cnn(C)c4)cn23)c1` [compound 261, 2-(3-methoxyphenyl)-N-[6-(1-methylpyrazol-4-yl)imidazo[1,2-a]pyrazin-3-yl]acetamide] here?
**A.** 10 to 20%

**Q.** Which Emax does the source give for `O=C(Nc1cnc2cnc(-c3ccsc3)cn12)c1cccs1` [compound 263, N-[6-(3-thienyl)imidazo[1,2-a]pyrazin-3-yl]thiophene-2-carboxamide] here?
**A.** 20 to 50%

**Q.** Which Emax does the source give for `COc1ccccc1-c1cn2c(NC(=O)c3ccccc3)cnc2cn1` [compound 267, N-[6-(2-methoxyphenyl)imidazo[1,2-a]pyrazin-3-yl]benzamide] here?
**A.** 20 to 50%

**Q.** How did the Emax turn out when `CN(C)c1cccc(-c2cn3c(NC(=O)c4ccccc4)cnc3cn2)c1` [compound 268, N-[6-[3-(dimethylamino)phenyl]imidazo[1,2-a]pyrazin-3-yl]benzamide] was run?
**A.** 50 to 100%

**Q.** `Nc1ccc(-c2cn3c(NC(=O)c4ccccc4)cnc3cn2)cc1` [compound 269, N-[6-(4-aminophenyl)imidazo[1,2-a]pyrazin-3-yl]benzamide] was tested. Which Emax did it give?
**A.** 20 to 50%

**Q.** With `CC(C(=O)Nc1cnc2cnc(-c3ccc4c(c3)OCO4)cn12)c1ccccc1` (stereo not shown) [compound 270, N-[6-(1,3-benzodioxol-5-yl)imidazo[1,2-a]pyrazin-3-yl]-2-phenyl-propanamide] as the molecule, how does the Emax read?
**A.** 20 to 50%

**Q.** `CC(C(=O)Nc1cnc2cnc(-c3cccc([N+](=O)[O-])c3)cn12)c1ccccc1` (stereo not shown) [compound 271, N-[6-(3-nitrophenyl)imidazo[1,2-a]pyrazin-3-yl]-2-phenyl-propanamide] was tested. Which Emax did it give?
**A.** 20 to 50%

**Q.** For `O=C(Nc1cnc2cnc(-c3cnn(Cc4ccccc4)c3)cn12)C1CCC1` [compound 273, N-[6-(1-benzylpyrazol-4-yl)imidazo[1,2-a]pyrazin-3-yl]cyclobutanecarboxamide], which Emax is on record?
**A.** 20 to 50%

**Q.** `CC(=O)c1cccc(-c2cn3c(NC(=O)CC4CC4)cnc3cn2)c1` [compound 274, N-[6-(3-acetylphenyl)imidazo[1,2-a]pyrazin-3-yl]-2-cyclopropyl-acetamide] was tested. Which Emax did it give?
**A.** 20 to 50%

**Q.** How did the Emax turn out when `O=C(Nc1cnc2cnc(-c3ccc4ccccc4c3)cn12)C1CCOC1` (stereo not shown) [compound 275, N-[6-(2-naphthyl)imidazo[1,2-a]pyrazin-3-yl]tetrahydrofuran-3-carboxamide] was run?
**A.** 10 to 20%

**Q.** `Nc1cccc(-c2cn3c(NC(=O)Cc4ccc(F)c(F)c4)cnc3cn2)c1` [compound 277, N-[6-(3-aminophenyl)imidazo[1,2-a]pyrazin-3-yl]-2-(3,4-difluorophenyl)acetamide] was tested. Which Emax did it give?
**A.** 10 to 20%

**Q.** With `O=C(Cc1ccsc1)Nc1cnc2cnc(-c3ccccc3F)cn12` [compound 278, N-[6-(2-fluorophenyl)imidazo[1,2-a]pyrazin-3-yl]-2-(3-thienyl)acetamide] as the molecule, how does the Emax read?
**A.** 10 to 20%

From EP2818471A1, “Nitrogen bicyclic compounds as inhibitors for Scyl1 and Grk5” (Max-Planck-Gesellschaft zur Förderung der Wissenschaften …, priority 2013, dated 2014)
